# Laboratory results: article PMC5295762, “Verticillin A Inhibits Leiomyosarcoma and Malignant Peripheral Nerve Sheath Tumor Growth via Induction of Apoptosis” (Clinical & experimental pharmacology, 2016)
# pEC50: −log10 of the molar value.
# Columns and labels:
# [1] = tested on: HASMC (human aortic smooth muscle cells); assay: MTS cell viability analysis, HASMC; assay type: cell-based
# Experimental: (§1) MTS analysis was performed using CellTiter96 Aqueous Non-Radioactive Cell Proliferation Assay kit (Promega, Madison, WI, USA) as specified by the manufacturer. Cells were seeded at a density of 5,000 cells per well, and allowed to adhere overnight. Cellular viability was assessed 24 h after treatment with DMSO (control), or 10, 50, or 100 nM verticillin A, and absorbance was measured at 490 nm wavelength.
# (§2) In vitro analyses were performed in triplicate. Mean ± SEM (standard error mean) calculations and statistical analyses were performed for all cell-based assays, and EC50 values were computed using GraphPad Prism version 6.00 (for Windows, GraphPad Software, La Jolla California USA, www.graphpad.com). All Student t tests performed were unpaired and two-sided. The average tumor volume (mm^3) and weight ([…]) for each study arm was measured and recorded. Mean ± SEM was calculated for each treatment group, and end-point analyses determined using unpaired two-sided t test was utilized to determine variances. *p ≤ 0.05; **p ≤ 0.01; ***p ≤ 0.001.
# [2] = tested on: HSC (human Schwann cells); assay: MTS cell viability analysis, HSC; assay type: cell-based
# Experimental: as §1, §2
# MPNST724 cells [3] = assay: MTS cell viability analysis, MPNST724; assay type: cell-based, human
# Experimental: as §1, §2
# S462 cells [4] = assay: MTS cell viability analysis, S462; assay type: cell-based, human
# Experimental: as §1, §2
# SKLMS1 cells [5] = assay: MTS cell viability analysis, SKLMS1; assay type: cell-based
# Experimental: as §1, §2
# LMS1 cells [6] = assay: MTS cell viability analysis, LMS1; assay type: cell-based
# Experimental: as §1, §2
# ST88 cells = assay: MTS cell viability analysis, ST88; assay type: cell-based, human; conditions: 24 h
# Experimental: as §1, §2
# MPNST and LMS cell lines [7] = assay: Clonogenic analysis; assay type: cell-based; conditions: all doses, 24 h treatment then 10 days recovery
# Experimental: Cells were seeded at 800 cells per well in a 6-well plate (9.5 cm^2) and allowed to attach overnight prior to treatment with DMSO or varying concentrations of verticillin A. Cells were treated for 24 h, then changed to recovery media and allowed to continue to grow for 10 days. Colonies were stained using 0.5% crystal violet solution in methanol for 30 min. Staining solution was removed, wells were washed with deionized H2O, and stained colonies were imaged and counted.
# MPNST and LMS cell lines [8] = assay: Cell cycle analysis (PI, FACS); assay type: cell-based; conditions: MPNST and LMS cells, 24 h treatment
# Experimental: Cells were synchronized by 16 h starvation prior to treatment with DMSO, 10, 50, or 100 nM of verticillin A for 24 h. Attached and floating cells were collected following treatment and centrifuged for 5 min at 2500 RPM. Supernatant was removed and cells were washed twice with cold PBS. Cells were centrifuged (2500 RPM/5 min) and resuspended in 70% ethanol and fixed overnight at −20° C. Cells were then centrifuged at (2500 RPM/5 min), and ethanol was removed. Subsequently, cells were resuspended in 400 µL PI stain (0.05 mg/mL/ 1 mg/mL sodium citrate/ 50 µL Triton-X-100/ 50 µL RNase A, brought to 50 mL with PBS) and analyzed via LSR II FACS analysis.
# HSC = assay: Cleaved caspase 3/7 activity, HSC; assay type: cell-based, human; conditions: 24 h
# Experimental: (§3) Apoptosis was measured by quantifying cleaved-caspase 3 and cleaved-caspase 7 activity using Cell Event Caspase 3/7 Green Detection Reagent (Life Technologies, Carlsbad, CA, USA) in the Incucyte Zoom system (Essen BioScience, Ann Arbor, MI, USA). Cells were plated at a density of 4,200 cells per well and allowed to adhere. The cells were then treated with DMSO or 10, 50, or 100 nM verticillin A for 24 h, and caspase activity was monitored using fluorescent Cell Event Caspase 3/7 Reagent (5 µM final concentration). Endpoint analysis was performed in each well using a final concentration of 10 µM Vybrant DyeCycle Green Stain (Life Technologies, Carlsbad, CA, USA) in complete DMEM. Apoptosis was confirmed using the Apoptosis Detection Kit (BD Pharmagen, San Diego, CA, USA) in complete DMEM. Per supplier instructions, 1 × 10^6 cells/mL were stained with 5 µL Annexin V-FITC and 5 µL propidium iodide following 24 h treatment with DMSO or 10, 50, or 100 nM verticillin A and analyzed via FACS analysis (LSR II, BD Pharmagen, San Diego, CA, USA).
# HASMC = assay: Cleaved caspase 3/7 activity, HASMC; assay type: cell-based, human; conditions: 24 h
# Experimental: as §3
# MPNST and LMS cell lines [9] = assay: Cleaved caspase 3/7 activity, MPNST and LMS cell lines; assay type: cell-based; conditions: all MPNST and LMS cell lines
# Experimental: as §3
# LMS1 cells [10] = assay: Annexin V/PI FACS analysis, LMS1; assay type: cell-based; conditions: LMS1, 24 h treatment, concentration not given
# Experimental: as §3
# MPNST724 cells [11] = assay: Annexin V/PI FACS analysis, MPNST724; assay type: cell-based, human; conditions: MPNST724, 24 h treatment, concentration not given
# Experimental: as §3
# SKLMS1 cells [12] = assay: Annexin V/PI FACS analysis, SKLMS1; assay type: cell-based; conditions: SKLMS1, 24 h treatment, concentration not given
# Experimental: as §3
# S462 cells [13] = assay: Annexin V/PI FACS analysis, S462; assay type: cell-based, human; conditions: S462, 24 h treatment, concentration not given
# Experimental: as §3
# MPNST724 xenografts = assay: MPNST724 xenograft model; assay type: in vivo, SCID mice
# Experimental: Six week old female SCID mice (Taconic Biosciences, Hudson, NY, USA; model ^#CB17SC) were injected subcutaneously with 1 × 10^6 MPNST724 cells into the flank. Once tumors reached 0.5 cm, mice were allocated into three arms (10 mice per arm) and treatment via intraperitoneal injections was initiated: Vehicle (5% ethanol/15% cremophor EL/80% PBS), verticillin A (0.25 mg/kg every other day), or verticillin A (0.5 mg/kg every other day). Mice were weighed and tumors were measured twice weekly. Mice were euthanized once tumors in the control group grew to ~1.5 cm. Final tumor volumes and weights were measured, and tumors were processed for IHC analysis.
# Ki67 (Vector Laboratories) and cleaved caspase 3 (Cell Signaling) antibodies were used to identify the effect of verticillin A on proliferation and apoptosis, respectively. IHC staining was conducted at Nationwide Children’s Hospital (Columbus, OH) and analysis was performed at the Polaris Innovation Center (The Ohio State University, Columbus, OH, USA). IHC samples and analyses were verified by pathologist, O. Hans Iwenofu, M.D. (The Ohio State University, Department of Pathology, Columbus, OH, USA).
# as §2
# SW620 colon cancer cells = tested on: SW620 colon cancer cells; design: method as in PMID 21911457; conditions: cited from earlier work
# [14] = tested on: HepG2 liver carcinoma cells; design: method as in PMID 21911457; conditions: cited from earlier work
# [15] = Homo sapiens, MTS, 24 h treatment
# [16] = 0.5 mg/kg intraperitoneal every other day, day 11
# [17] = MPNST724 xenograft tumors, 0.5 mg/kg
compound,measurement,setting,value
CN1C(=O)C23SSC1(C)C(=O)N2C1Nc2ccccc2C1(C12c4ccccc4NC1N1C(=O)C4(C)SSC1(C(=O)N4C)C2O)C3O (stereo not shown) [verticillin A],effect on cell viability,[1]; 100 nM,no effect
same,pEC50,[1]; [15],6.60
same,pEC50,[2]; [15],7.19
same,toxicity to normal cells,[2]; highest treatment dose,toxicity was seen
same,pEC50,"MPNST724 cells [3]; Homo sapiens, MPNST724, MTS, 24 h treatment",6.90
same,effect on cell viability,"MPNST724 cells [3]; MPNST724, 10 nM, 24 h",exhibited tolerance
same,cellular growth reduction,"MPNST724 cells [3]; MPNST724, 100 nM, 24 h",39.7%
same,pEC50,"S462 cells [4]; Homo sapiens, S462, MTS, 24 h treatment",7.58
same,effect on cell viability,"S462 cells [4]; S462, 10 nM, 24 h",marked inhibitory effect
same,cellular growth reduction,"S462 cells [4]; S462, 100 nM, 24 h",88.7%
same,pEC50,"SKLMS1 cells [5]; Homo sapiens, SK-LMS-1, SKLMS1, MTS, 24 h treatment",7.13
same,effect on cell viability,"SKLMS1 cells [5]; SKLMS1, 10 nM, 24 h",exhibited tolerance
same,cellular growth reduction,"SKLMS1 cells [5]; SKLMS1, 100 nM, 24 h",57%
same,effect on cell viability,"LMS1 cells [6]; LMS1, 10 nM, 24 h",marked inhibitory effect
same,cellular growth reduction,"LMS1 cells [6]; LMS1, 100 nM, 24 h",96.7%
same,pEC50,"LMS1 cells [6]; LMS1, MTS, 24 h treatment",7.97
same,effect on cell viability,"ST88 cells; ST88, 10 nM",marked inhibitory effect
same,cellular growth reduction,"ST88 cells; ST88, 100 nM",72.7%
same,colony formation capacity,MPNST and LMS cell lines [7],unable to form colonies
same,cell cycle arrest,MPNST and LMS cell lines [8],No substantial arrest in cell cycle progression
same,cleaved caspase 3/7 activity,HSC,1.1 fold change
same,cleaved caspase 3/7 activity,HASMC,1.2 fold change
same,increase in cleaved caspase 3/7 activity,MPNST and LMS cell lines [9],nearly two-fold increase
same,apoptosis (Annexin V/PI),LMS1 cells [10],73.4 ± 12.7%
same,apoptosis (Annexin V/PI),MPNST724 cells [11],34 ± 4.3%
same,apoptosis (Annexin V/PI),SKLMS1 cells [12],29.4 ± 2.3%
same,apoptosis (Annexin V/PI),S462 cells [13],25.9 ± 3.75%
same,tumor volume,"MPNST724 xenografts; 0.25 mg/kg intraperitoneal every other day, day 11",355.89 mm^3
same,verticillin A-induced mortality,"MPNST724 xenografts; 0.5 mg/kg arm, 10 mice per arm",2 mice
same,toxicity signs in mice,MPNST724 xenografts; 0.5 mg/kg intraperitoneal every other day,reduced grooming tendencies and mild weight loss
same,tumor volume,MPNST724 xenografts; [16],160.92 mm^3
same,tumor weight,MPNST724 xenografts; [16],0.2 g
same,decrease in Ki67 proliferation marker expression (IHC),MPNST724 xenografts; [17],~40%
same,increase in cleaved caspase 3 expression (IHC),MPNST724 xenografts; [17],5.5 fold
same,toxicity signs in mice,MPNST724 xenografts; lower dose (0.25 mg/kg),Minor signs of toxicity
same,cell cycle effect,SW620 colon cancer cells,induce G2 cell cycle arrest
same,cell cycle effect,[14],no changes in cell cycle progression
